# Assay results reported in ChEMBL document CHEMBL3871307, “Discovery of Chromane Propionic Acid Analogues as Selective Agonists of GPR120 with in Vivo Activity in Rodents” (ACS Med Chem Lett, 2017).
# The source made the active and inactive calls. No cut-off for these calls is given here.
# Key:
# [1] = Mean residence time in rhesus monkey plasma at 0.5 mg/kg, iv or 1 mg/kg, po by LC/MS/MS analysis; format: ADME, organism-based, Macaca mulatta
# [2] = Protein binding in rat plasma at 0.1 mg/kg administered as iv casette dose by LC/MS/MS analysis; format: ADME, organism-based; conditions: read-out: PPB (converted)
# [3] = Oral bioavailability in rhesus monkey plasma at 1 mg/kg by LC/MS/MS analysis; format: ADME, organism-based, Macaca mulatta
# [4] = Clearance in rhesus monkey plasma at 0.5 mg/kg, iv or 1 mg/kg, po by LC/MS/MS analysis; format: ADME, organism-based, Macaca mulatta
# [5] = target: T1, Free fatty acid receptor 4 (Homo sapiens, UniProt Q5NUL3); assay: Agonist activity at human GPR120 short isoform expressed in CHOK1 cells assessed as beta-arrestin recruitment after 90 mins by luminescence assay; format: cell-based, CHO-K1
# T1 sequence (Q5NUL3 whole entry): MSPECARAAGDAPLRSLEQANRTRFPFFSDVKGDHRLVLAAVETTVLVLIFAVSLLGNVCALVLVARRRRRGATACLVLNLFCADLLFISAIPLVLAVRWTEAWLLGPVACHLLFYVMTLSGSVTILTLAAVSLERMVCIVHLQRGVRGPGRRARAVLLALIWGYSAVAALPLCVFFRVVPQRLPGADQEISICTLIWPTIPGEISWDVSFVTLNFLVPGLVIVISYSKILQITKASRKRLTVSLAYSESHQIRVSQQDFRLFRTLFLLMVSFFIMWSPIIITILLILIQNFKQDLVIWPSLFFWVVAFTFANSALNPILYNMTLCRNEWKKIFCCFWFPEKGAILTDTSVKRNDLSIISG
# Mus musculus [6] = assay: Glucose lowering effect in C57BL/6 transverse aortic constriction mouse assessed as reduction in blood glucose at 3 to 30 mg/kg, po via gavage pretreated for 60 mins followed by dextrose challenge measured up to 120 mins post glucose challenge by OGTT; format: functional, organism-based
# [7] = target: T2, Peroxisome proliferator-activated receptor alpha (Homo sapiens) (UniProt Q07869); assay: Activity at PPARalpha (unknown origin)
# T2 sequence (whole entry): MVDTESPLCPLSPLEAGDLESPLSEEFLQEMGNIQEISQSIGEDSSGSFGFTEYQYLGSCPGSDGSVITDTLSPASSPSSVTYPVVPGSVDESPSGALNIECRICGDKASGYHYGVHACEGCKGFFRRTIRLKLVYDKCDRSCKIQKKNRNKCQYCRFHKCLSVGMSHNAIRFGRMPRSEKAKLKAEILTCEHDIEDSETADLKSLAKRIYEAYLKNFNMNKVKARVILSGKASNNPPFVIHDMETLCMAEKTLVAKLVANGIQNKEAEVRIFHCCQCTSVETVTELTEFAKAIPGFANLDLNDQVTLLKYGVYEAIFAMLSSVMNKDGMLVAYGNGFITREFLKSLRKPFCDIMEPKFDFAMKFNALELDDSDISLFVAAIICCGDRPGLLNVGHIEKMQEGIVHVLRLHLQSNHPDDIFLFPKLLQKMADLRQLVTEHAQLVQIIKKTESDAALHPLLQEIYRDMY
# [8] = Clearance in rat plasma at 0.1 mg/kg administered as iv casette dose by LC/MS/MS analysis; format: ADME, organism-based
# [9] = Mean residence time in mouse plasma at 2 mg/kg, iv or 30 mg/kg, po by LC/MS/MS analysis; format: ADME, organism-based
# Cytochrome P450 2C9 = Cytochrome P450 2C9 (Homo sapiens, UniProt P11712); assay: Inhibition of human CYP2C9; format: ADME
# [10] = Terminal half life in rat plasma at 0.1 mg/kg administered as iv casette dose by LC/MS/MS analysis; format: ADME, organism-based; conditions: read-out: beta t1/2 (converted)
# [11] = AUC in rhesus monkey plasma at 0.5 mg/kg, iv by LC/MS/MS analysis; format: ADME, organism-based, Macaca mulatta
# [12] = target: T3, Free fatty acid receptor 4 (Mus musculus, UniProt Q7TMA4); assay: Agonist activity at mouse GPR120 expressed in human U2OS cells assessed as beta-arrestin recruitment after 90 mins by luminescence assay; format: cell-based
# T3 sequence (Q7TMA4 whole entry): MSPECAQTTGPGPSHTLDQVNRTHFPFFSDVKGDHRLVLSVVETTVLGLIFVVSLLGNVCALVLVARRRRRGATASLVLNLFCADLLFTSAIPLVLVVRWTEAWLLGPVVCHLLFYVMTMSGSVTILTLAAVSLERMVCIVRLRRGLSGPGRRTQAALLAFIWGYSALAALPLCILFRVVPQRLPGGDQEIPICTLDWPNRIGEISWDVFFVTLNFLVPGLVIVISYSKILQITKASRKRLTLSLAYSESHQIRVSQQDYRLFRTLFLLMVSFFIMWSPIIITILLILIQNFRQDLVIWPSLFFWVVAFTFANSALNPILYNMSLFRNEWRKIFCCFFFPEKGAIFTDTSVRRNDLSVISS
# [13] = target: T3, Free fatty acid receptor 4; assay: Agonist activity at mouse GPR120 expressed in CHOK1 cells assessed as increase in IP1 accumulation after 60 mins by HTRF assay; format: functional, cell-based, CHO-K1
# [14] = AUC in rat plasma at 1 mg/kg, iv by LC/MS/MS analysis; format: ADME, organism-based
# Mus musculus [15] = assay: In vivo agonist activity at GPR120 in wild type C57BL/6 transverse aortic constriction mouse assessed as glucose lowering effect at 150 mg/kg, po via gavage pretreated for 60 mins followed by dextrose challenge measured up to 120 mins post glucose challenge by OGTT; format: functional, organism-based
# [16] = Protein binding in rat plasma at 1 mg/kg, iv or 2 mg/kg, po by LC/MS/MS analysis; format: ADME, organism-based; conditions: read-out: PPB (converted)
# [17] = target: T1, Free fatty acid receptor 4; assay: Agonist activity at human GPR120 short isoform expressed in CHOK1 cells assessed as increase in IP1 accumulation after 60 mins by HTRF assay; format: functional, cell-based, CHO-K1
# [18] = Intrinsic clearance in mouse plasma at 2 mg/kg, iv or 30 mg/kg, po by LC/MS/MS analysis; format: ADME, organism-based; conditions: in vivo
# [19] = Mean residence time in rat plasma at 1 mg/kg, iv or 2 mg/kg, po by LC/MS/MS analysis; format: ADME, organism-based
# [20] = target: T4, Peroxisome proliferator-activated receptor delta (Homo sapiens) (UniProt Q03181); assay: Activity at PPARdelta (unknown origin)
# T4 sequence (whole entry): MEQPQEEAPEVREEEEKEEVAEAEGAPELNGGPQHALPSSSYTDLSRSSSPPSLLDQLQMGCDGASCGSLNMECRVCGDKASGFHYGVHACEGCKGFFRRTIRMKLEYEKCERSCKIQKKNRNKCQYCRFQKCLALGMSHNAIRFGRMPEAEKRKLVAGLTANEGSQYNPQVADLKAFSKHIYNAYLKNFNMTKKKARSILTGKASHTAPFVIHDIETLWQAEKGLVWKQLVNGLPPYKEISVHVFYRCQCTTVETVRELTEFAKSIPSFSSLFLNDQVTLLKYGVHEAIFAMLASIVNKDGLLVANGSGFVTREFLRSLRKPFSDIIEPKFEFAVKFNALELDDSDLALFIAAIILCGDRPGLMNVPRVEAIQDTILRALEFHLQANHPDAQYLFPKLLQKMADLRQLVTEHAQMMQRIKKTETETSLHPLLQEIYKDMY
# Cytochrome P450 2C9, sequence (P11712 whole entry): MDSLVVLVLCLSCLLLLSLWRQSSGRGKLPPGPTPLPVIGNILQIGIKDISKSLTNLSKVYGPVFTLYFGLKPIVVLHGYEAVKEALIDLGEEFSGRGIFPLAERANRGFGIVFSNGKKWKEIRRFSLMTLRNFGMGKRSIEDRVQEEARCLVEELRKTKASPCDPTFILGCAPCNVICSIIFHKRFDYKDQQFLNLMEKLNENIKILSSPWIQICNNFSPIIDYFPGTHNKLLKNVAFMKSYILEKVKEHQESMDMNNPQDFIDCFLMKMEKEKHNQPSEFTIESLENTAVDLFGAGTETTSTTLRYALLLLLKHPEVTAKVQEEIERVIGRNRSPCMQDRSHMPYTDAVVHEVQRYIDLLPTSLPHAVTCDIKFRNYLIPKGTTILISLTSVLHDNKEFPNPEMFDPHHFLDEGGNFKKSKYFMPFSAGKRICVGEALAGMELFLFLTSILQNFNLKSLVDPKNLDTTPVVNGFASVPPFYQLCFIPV
structure (smiles),measurement,setting,value
CO[C@H]1C[C@H](Oc2cc(F)c(F)c(-c3ccc4c(c3)CC[C@H](CCC(=O)O)O4)n2)C1,MRT,[1],13.5 h
same,fraction unbound,[2],0.0024
same,bioavailability,[3],82%
same,clearance,[4],0.33 mL/min/kg
same,EC50,[5],24 nM
same,Activity,Mus musculus [6],Active
same,Activity,[7],> 10 µM
same,clearance,[8],1.3 mL/min/kg
same,MRT,[9],2.4 h
same,IC50,Cytochrome P450 2C9,> 50000 nM
same,half-life,[10],2.1 h
same,AUC,[11],57.8 µM·h
same,EC50,[12],6.8 nM
same,EC50,[13],6.4 nM
same,AUC,[14],35.9 µM·h
same,Activity,Mus musculus [15],Active
same,fraction unbound,[16],0.0024
same,EC50,[17],35 nM
same,CL,[18],3400 mL/min/kg
same,MRT,[19],4.6 h
same,Activity,[20],> 10 µM
